Experiments:
Experiment in all cases: Test Example 11: herbicidal effect test by soil treatment in paddy field
Assay type in all cases: in vivo
Conditions in all cases: 120 g/10a active ingredient, 14 days after treatment
[1] = test system: Lindernia pyxidaria
Source text: (§1) A Wagner pot having an area of 1/10000 are was filled with paddy field soil and after adding water, a chemical fertilizer (N:P:K=17:17:17) was mixed, followed by puddling. Thereafter, 30 grains of each of Echinochloa crus-galli, broad-leaved weed (Lindernia pyxidaria, Monochoria vaginalis) and Scirpus juncoides seeds were sown to a depth of 0 to 1 cm. Immediately after the sowing, the pot was flooded, and the depth of water was kept at about 3 cm. The pot was subsequently managed in a glass greenhouse. Just after that, an emulsifiable concentrate prepared according to Formulation Example 15 by using the compound shown in Table 9 below was diluted with water, and a predetermined amount of the water-diluted formulation was added dropwise. The application rate of the active ingredient, by conversion, corresponded to 120 g per 10 are.
(§2) This test was performed with two replications per one formulation concentration plot, and 14 days after the formulation treatments, the weed suppression rate (%) was determined according to the following equation (Math. 2). Weed suppression rate (%)=(1−average dry weight (g) of plants in treated plots/average dry weight (g) of plants in untreated plots)×100 [Math. 2]

[2] = test system: Monochoria vaginalis
Source text: as §1, §2

[3] = test system: Echinochloa crus-galli
Source text: as §1, §2

[4] = test system: Scirpus juncoides
Source text: as §1, §2

Structure (SMILES)	Weed suppression rate (%) Lindemia pyxidaria [1] [%]	Weed suppression rate (%) Monochoria vaginalis [2] [%]	Weed suppression rate (%) Echinochloa crus-galli [3] [%]	Weed suppression rate (%) Scirpus juncoides [4] [%]
CC(C)N(C(=O)n1cnn(S(=O)(=O)c2ccc(C(C)(C)C)cc2)c1=O)c1ccc(C(F)(F)F)cc1F [Compound 11-699]	90	70	90	30
CC(C)N(C(=O)n1cnn(S(=O)(=O)c2cccc(Cl)c2)c1=O)c1cccc(F)c1F [Compound 11-549]	90	100	80	100
Cc1cc(F)ccc1N(C(=O)n1cnn(S(=O)(=O)c2ccccc2Cl)c1=O)C(C)C [Compound 11-525]	90	90	60	60
CC(C)N(C(=O)n1cnn(S(=O)(=O)c2ccc(C(C)(C)C)cc2)c1=O)c1ccc(Br)cc1Cl [Compound 11-693]	60	60	80	60
CC(C)N(C(=O)n1cnn(S(=O)(=O)c2cccc(Cl)c2)c1=O)c1ccccc1 [Compound 11-539]	90	40	80	40
CC(C)N(C(=O)n1cnn(S(=O)(=O)c2cccc(F)c2)c1=O)c1ccc(F)cc1Cl [Compound 11-445]	70	60	100	100
Cc1cc(F)ccc1N(C(=O)n1cnn(S(=O)(=O)c2ccccc2F)c1=O)C(C)C [Compound 11-415]	70	70	80	30
CC(C)N(C(=O)n1cnn(S(=O)(=O)c2ccc(Cl)cc2)c1=O)c1ccccc1 [Compound 11-577]	60	0	40	0
CC(C)N(C(=O)n1cnn(S(=O)(=O)c2cccc(C(F)(F)F)c2)c1=O)c1c(F)cc(F)cc1F [Compound 11-727]	80	60	90	80
CCN(CC)C(=O)n1cnn(S(=O)(=O)c2ccc(Cl)cc2)c1=O [Compound 11-576]	0	0	40	0
Cc1cc(C)c(S(=O)(=O)n2ncn(C(=O)N(c3ccc(Cl)cc3C)C(C)C)c2=O)c(C)c1 [Compound 11-878]	80	80	90	90
CC(C)N(C(=O)n1cnn(S(=O)(=O)c2c(F)c(F)c(F)c(F)c2F)c1=O)c1ccc(F)c(F)c1F [Compound 11-814]	90	70	70	30
CC(C)N(C(=O)n1cnn(S(=O)(=O)c2ccc(Cl)cc2)c1=O)c1c(F)c(F)cc(F)c1F [Compound 11-593]	70	60	80	30
Cc1cc(Cl)ccc1N(C(=O)n1cnn(S(=O)(=O)c2ccc(F)cc2)c1=O)C(C)C [Compound 11-490]	80	80	90	90
CC(C)N(C(=O)n1cnn(S(=O)(=O)c2cccc(Cl)c2)c1=O)c1ccc(Cl)cn1 [Compound 11-574]	80	40	90	50
Cc1cc(C)c(S(=O)(=O)n2ncn(C(=O)N(c3c(F)cccc3F)C(C)C)c2=O)c(C)c1 [Compound 11-865]	70	70	80	70
Cc1ccc(S(=O)(=O)n2ncn(C(=O)N(c3ccc(Cl)cc3Br)C(C)C)c2=O)cc1 [Compound 11-649]	70	60	90	60
CC(C)N(C(=O)n1cnn(S(=O)(=O)c2cccc(C(F)(F)F)c2)c1=O)c1ccc(F)c(F)c1F [Compound 11-726]	90	30	100	30
CC(C)N(C(=O)n1cnn(S(=O)(=O)CCl)c1=O)c1ccc(C(F)(F)F)cc1F [Compound 11-126]	100	60	100	30
Cc1ccc(N(C(=O)n2cnn(S(=O)(=O)c3c(F)cccc3F)c2=O)C(C)C)c(F)c1 [Compound 11-787]	80	80	90	90
CC(C)N(C(=O)n1cnn(S(=O)(=O)c2ccc(Cl)cc2)c1=O)c1ccccc1F [Compound 11-578]	80	80	90	90
Cc1ccc(S(=O)(=O)n2ncn(C(=O)N(c3ccc(Cl)cc3C)C(C)C)c2=O)cc1 [Compound 11-652]	80	80	90	90
CC(C)N(C(=O)n1cnn(S(=O)(=O)c2ccc(C(F)(F)F)cc2)c1=O)c1ccc(F)cc1F [Compound 11-749]	70	70	60	70
CC(C)N(C(=O)n1cnn(S(=O)(=O)c2c(F)cccc2F)c1=O)c1ccc(F)cc1Cl [Compound 11-780]	100	60	60	100
Cc1cc(Cl)ccc1N(C(=O)n1cnn(S(=O)(=O)c2ccccc2Cl)c1=O)C(C)C [Compound 11-527]	80	80	90	90
CC(C)N(C(=O)n1cnn(S(=O)(=O)c2ccc(Cl)cc2)c1=O)c1ccc(F)cc1Cl [Compound 11-595]	90	70	90	60
CC(C)N(C(=O)n1cnn(S(=O)(=O)c2c(F)cccc2F)c1=O)c1ccc(C(F)(F)F)cc1F [Compound 11-790]	90	30	80	90
Cc1cc(C)c(S(=O)(=O)n2ncn(C(=O)N(c3ccc(C(F)(F)F)cc3F)C(C)C)c2=O)c(C)c1 [Compound 11-880]	80	100	80	30
